Laboratory results published in patent publication US11590116B2 (THERAVANCE BIOPHARMA R&D IP, LLC, priority 2019, dated 2023).

Legend:
[1] = biological target: T1, recombinant human ALK5 (TGF-βR1) protein (Homo sapiens, UniProt P36897); test: Biochemical ALK5 (TGF-βR1) assay to measure pKi (LANCE Ultra ULight kinase assay); conditions: apparent pKi from pIC50 by Cheng-Prusoff, read-out: ALK5 pKi (converted)
T1 construct: purchased Life Technologies PR9075A
T1 sequence (P36897 34-503): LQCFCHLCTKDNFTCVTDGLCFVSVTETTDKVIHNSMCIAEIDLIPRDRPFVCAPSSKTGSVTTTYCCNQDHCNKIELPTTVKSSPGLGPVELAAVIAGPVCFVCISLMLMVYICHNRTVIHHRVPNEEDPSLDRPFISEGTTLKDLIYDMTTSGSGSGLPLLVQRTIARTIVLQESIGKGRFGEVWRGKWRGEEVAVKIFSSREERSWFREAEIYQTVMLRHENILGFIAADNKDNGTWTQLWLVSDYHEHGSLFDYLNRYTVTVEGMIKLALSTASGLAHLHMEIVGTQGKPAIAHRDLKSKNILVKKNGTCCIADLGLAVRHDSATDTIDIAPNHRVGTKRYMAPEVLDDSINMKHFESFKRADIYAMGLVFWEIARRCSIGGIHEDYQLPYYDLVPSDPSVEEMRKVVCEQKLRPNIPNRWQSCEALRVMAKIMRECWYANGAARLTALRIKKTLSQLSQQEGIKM
Procedure, shortened: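 Dose range 10 μM–25 pM; enzyme + compound 60 min RT; ATP added (5× stock 125 μM, 2 mM DTT); 60 min 37 °C; stop with EDTA + Eu anti-phospho-Topo IIα Thr1342 Ab; TR-FRET ex 320/340, em 665 nm. 4-param pIC50 → pKi (Cheng-Prusoff).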

[2] = system: TGF-β-stimulated SMAD3 phosphorylation in BEAS-2B cells; test: Cellular ALK5 potency assay, inhibition of TGF-β stimulated pSMAD3 formation in BEAS-2B cells; type: cell-based; conditions: Homo sapiens; inhibition of TGF-β stimulated pSMAD3 formation, BEAS-2B cells; read-out: BEAS2B pIC50 (converted)
Procedure, shortened: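 Cells seeded overnight; rinse with supplemented HBSS; compound 1 h at 37 °C; TGF-β 10 ng/mL final, 30 min; lyse; AlphaLISA acceptor and detector beads 2 h apart, read next day. Potency expressed as pIC50.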

Row | SMILES | Ki [1] [nM] | IC50 [2] [nM]
1 | Cc1cccc(-c2[nH]cnc2-c2ccc3ncc(C4=CCC(N(C)C)CC4)cc3n2)n1 (stereo not shown) [Compound 452, N,N-dimethyl-4-[6-[5-(6-methyl-2-pyridyl)-1H-imidazol-4-yl]-1,5-naphthyridin-3-yl]cyclohex-3-en-1-amine] | < 0.0316 | 25.1 to 158
2 | Cc1nc(-c2nc3ccccn3c2-c2ccc3ncc(Br)cc3n2)ccc1F [Compound 453, 7-bromo-2-[2-(5-fluoro-6-methyl-2-pyridyl)imidazo[1,2-a]pyridin-3-yl]-1,5-naphthyridine] | 0.398 to 3.16 | 1580 to 10000
3 | Cc1cc(-c2cnc3ccc(-c4c[nH]nc4-c4cccc(C)n4)nc3c2)ccn1 [Compound 454, 7-(2-methyl-4-pyridyl)-2-[3-(6-methyl-2-pyridyl)-1H-pyrazol-4-yl]-1,5-naphthyridine] | < 0.0316 | < 20
4 | Cc1nc(-c2n[nH]cc2-c2ccc3ncc(-c4cnn(CC5CC(N)C5)c4)cc3n2)ccc1F (stereo not shown) [Compound 455, 3-[[4-[6-[3-(5-fluoro-6-methyl-2-pyridyl)-1H-pyrazol-4-yl]-1,5-naphthyridin-3-yl]pyrazol-1-yl]methyl]cyclobutanamine] | 0.0398 to 0.316 | 25.1 to 158
5 | Cc1cccc(-c2[nH]cnc2-c2ccc3ncc(C4=CCC(NCC5CCOC5=O)CC4)cc3c2)n1 (stereo not shown) [Compound 456, 3-[[[4-[6-[5-(6-methyl-2-pyridyl)-1H-imidazol-4-yl]-3-quinolyl]cyclohex-3-en-1-yl]amino]methyl]tetrahydrofuran-2-one] | < 0.0316 | < 20
6 | Cc1nc(-c2nc3ccccn3c2-c2ccc3ncc(N4CCNCC4)cc3c2)ccc1F [Compound 457, 6-[2-(5-fluoro-6-methyl-2-pyridyl)imidazo[1,2-a]pyridin-3-yl]-3-piperazin-1-yl-quinoline] | 0.0398 to 0.316 | 25.1 to 158
7 | Cc1nc(-c2n[nH]cc2-c2ccc3ncc(-c4cnn(C5CCCNC5)c4)cc3c2)ccc1F (stereo not shown) [Compound 458, 6-[3-(5-fluoro-6-methyl-2-pyridyl)-1H-pyrazol-4-yl]-3-[1-(3-piperidyl)pyrazol-4-yl]quinoline] | < 0.0316 | < 20
8 | Cc1cccc(-c2[nH]cnc2-c2ccc3ncc(N4CC(N)C4)cc3c2)n1 [Compound 460, 1-[6-[5-(6-methyl-2-pyridyl)-1H-imidazol-4-yl]-3-quinolyl]azetidin-3-amine] | 0.0398 to 0.316 | 25.1 to 158
9 | Cc1cccc(-c2[nH]cnc2-c2ccc3ncc(C4=CCC(C(=O)O)CC4)cc3c2)n1 (stereo not shown) [Compound 461, 4-[6-[5-(6-methyl-2-pyridyl)-1H-imidazol-4-yl]-3-quinolyl]cyclohex-3-ene-1-carboxylic acid] | 0.0398 to 0.316 | 25.1 to 158
10 | Cc1cccc(-c2n[nH]cc2-c2ccc3ncc(-c4nc(C(F)(F)F)n5c4CNCC5)cc3n2)n1 [Compound 465, 2-[3-(6-methyl-2-pyridyl)-1H-pyrazol-4-yl]-7-[3-(trifluoromethyl)-5,6,7,8-tetrahydroimidazo[1,5-a]pyrazin-1-yl]-1,5-naphthyridine] | 0.0398 to 0.316 | 25.1 to 158
11 | Cc1nc(-c2n[nH]cc2-c2ccc3ncc(-c4nnn5c4CNCC5)cc3n2)ccc1F [Compound 466, 2-[3-(5-fluoro-6-methyl-2-pyridyl)-1H-pyrazol-4-yl]-7-(4,5,6,7-tetrahydrotriazolo[1,5-a]pyrazin-3-yl)-1,5-naphthyridine] | 0.0398 to 0.316 | 25.1 to 158
12 | Cc1cccc(-c2[nH]cnc2-c2ccc3ncc(NCCN4CCN(C(C)C)CC4)cc3c2)n1 [Compound 467, N-[2-(4-isopropylpiperazin-1-yl)ethyl]-6-[5-(6-methyl-2-pyridyl)-1H-imidazol-4-yl]quinolin-3-amine] | 0.0398 to 0.316 | 25.1 to 158
13 | Cc1cccc(-c2n[nH]c(NCCN3CCOCC3)c2-c2ccc3ncc(-c4ccncc4)cc3n2)n1 [Compound 468, 3-(6-methylpyridin-2-yl)-N-(2-morpholinoethyl)-4-(7-(pyridin-4-yl)-1,5-naphthyridin-2-yl)-1H-pyrazol-5-amine] | 0.0398 to 0.316 | 200 to 1260
14 | Cc1cccc(-c2nc3ccccn3c2-c2ccc3ncc(-c4cn[nH]c4)cc3n2)n1 [Compound 469, 2-(2-(6-methylpyridin-2-yl)imidazo[1,2-a]pyridin-3-yl)-7-(1H-pyrazol-4-yl)-1,5-naphthyridine] | 0.0398 to 0.316 | < 20
15 | Cc1cccc(-c2n[nH]cc2-c2ccc3ncc(C4CCNCC4)cc3n2)n1 [Compound 470, 2-[3-(6-methyl-2-pyridyl)-1H-pyrazol-4-yl]-7-(4-piperidyl)-1,5-naphthyridine] | 0.398 to 3.16 | 25.1 to 158
16 | CNCc1c(-c2cn[nH]c2)cnc2ccc(-c3c[nH]nc3-c3cccc(C)n3)cc12 [Compound 471, N-methyl-1-[6-[3-(6-methyl-2-pyridyl)-1H-pyrazol-4-yl]-3-(1H-pyrazol-4-yl)-4-quinolyl]methanamine] | 0.0398 to 0.316 | 25.1 to 158
17 | Cc1cccc(-c2[nH]cnc2-c2ccc3ncc(C4=CCNCC4)cc3c2)n1 [Compound 472, 6-[5-(6-methyl-2-pyridyl)-1H-imidazol-4-yl]-3-(1,2,3,6-tetrahydropyridin-4-yl)quinoline] | < 0.0316 | < 20
18 | Cc1cccc(-c2nc3ccccn3c2-c2ccc3ncc(N4CCNCC4)cc3n2)n1 [Compound 473, 2-[2-(6-methyl-2-pyridyl)imidazo[1,2-a]pyridin-3-yl]-7-piperazin-1-yl-1,5-naphthyridine] | 0.0398 to 0.316 | 25.1 to 158
19 | Cc1nc(-c2n[nH]cc2-c2ccc3ncc(-c4cnn(CC5CNC5)c4)cc3n2)ccc1F [Compound 474, 7-[1-(azetidin-3-ylmethyl)pyrazol-4-yl]-2-[3-(5-fluoro-6-methyl-2-pyridyl)-1H-pyrazol-4-yl]-1,5-naphthyridine] | < 0.0316 | 25.1 to 158
20 | Cc1cccc(-c2nnn(Cc3ccccc3)c2-c2ccc3ncc(N4CCC(N5CCN(C)CC5)CC4)cc3n2)n1 [Compound 475, 2-[3-benzyl-5-(6-methyl-2-pyridyl)triazol-4-yl]-7-[4-(4-methylpiperazin-1-yl)-1-piperidyl]-1,5-naphthyridine] | 0.0398 to 0.316 | 200 to 1260
21 | Cc1cccc(-c2[nH]cnc2-c2ccc3ncc(NCCN4CC(N)C4)cc3c2)n1 [Compound 476, N-[2-(3-aminoazetidin-1-yl)ethyl]-6-[5-(6-methyl-2-pyridyl)-1H-imidazol-4-yl]quinolin-3-amine] | 0.0398 to 0.316 | 25.1 to 158
22 | CNCCn1cc(-c2cnc3ccc(-c4c[nH]nc4-c4ccc(F)c(C)n4)nc3c2)cn1 [Compound 477, 2-[4-[6-[3-(5-fluoro-6-methyl-2-pyridyl)-1H-pyrazol-4-yl]-1,5-naphthyridin-3-yl]pyrazol-1-yl]-N-methyl-ethanamine] | < 0.0316 | < 20
23 | Cc1cccc(-c2n[nH]cc2-c2ccc3ncc(NCCN4CCN(C(C)C)CC4)cc3n2)n1 [Compound 478, N-[2-(4-isopropylpiperazin-1-yl)ethyl]-6-[3-(6-methyl-2-pyridyl)-1H-pyrazol-4-yl]-1,5-naphthyridin-3-amine] | < 0.0316 | 25.1 to 158
24 | Cc1cccc(-c2[nH]nnc2-c2ccc3ncc(N4CCNCC4)cc3n2)n1 [Compound 479, 2-[5-(6-methyl-2-pyridyl)-1H-triazol-4-yl]-7-piperazin-1-yl-1,5-naphthyridine] | 0.398 to 3.16 | 200 to 1260
25 | Cc1cccc(-c2n[nH]cc2-c2ccc3ncc(-c4nc(C(N)=O)co4)cc3n2)n1 [Compound 480, 2-[6-[3-(6-methyl-2-pyridyl)-1H-pyrazol-4-yl]-1,5-naphthyridin-3-yl]oxazole-4-carboxamide] | 0.0398 to 0.316 | 25.1 to 158
26 | CNCCn1cc(-c2cnc3ccc(-c4c[nH]nc4-c4cccc(C(F)F)n4)nc3c2)cn1 [Compound 481, 2-[4-[6-[3-[6-(difluoromethyl)-2-pyridyl]-1H-pyrazol-4-yl]-1,5-naphthyridin-3-yl]pyrazol-1-yl]-N-methyl-ethanamine] | < 0.0316 | 25.1 to 158
27 | Cc1nc(-c2n[nH]cc2-c2ccc3ncc(-c4cn[nH]c4)cc3n2)ccc1F [Compound 482, 2-[3-(5-fluoro-6-methyl-2-pyridyl)-1H-pyrazol-4-yl]-7-(1H-pyrazol-4-yl)-1,5-naphthyridine] | < 0.0316 | < 20
28 | Cc1nc(-c2n[nH]cc2-c2ccc3ncc(-c4nc(C)c(CCN)[nH]4)cc3n2)ccc1F [Compound 483, 2-[2-[6-[3-(5-fluoro-6-methyl-2-pyridyl)-1H-pyrazol-4-yl]-1,5-naphthyridin-3-yl]-4-methyl-1H-imidazol-5-yl]ethanamine] | 0.0398 to 0.316 | 200 to 1260
29 | Cc1cccc(-c2n[nH]cc2-c2ccc3ncc(-c4c[nH]nc4C(F)(F)F)cc3n2)n1 [Compound 484, 2-[3-(6-methyl-2-pyridyl)-1H-pyrazol-4-yl]-7-[3-(trifluoromethyl)-1H-pyrazol-4-yl]-1,5-naphthyridine] | 0.0398 to 0.316 | < 20
